Remaining binding data for one compound are collected here from paper PMC10174618, “Monoterpenoid aryl hydrocarbon receptor allosteric antagonists protect against ultraviolet skin damage in female mice” (Nature Communications, 2023).

Holding throughout (assay): biochemical
Set-up in all cases: KINOMEscan scanMAX active site-directed competition binding assay, percent of control, 468 kinases
Common to all, as to settings: competition binding, percent of control

Assay [1] deals with TESK1 (Homo sapiens, UniProt Q15569). The method, boiled down: (§1)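 KINOMEscan active site-directed competition binding assay against 468 human kinases with 100 μM S-carvone. Binding expressed as % of control, with 35% of control as the inhibition threshold.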
Assay [2] concerns the target NEK4 (Homo sapiens, UniProt P51957). The method, boiled down: as §1
For assay [3], the target named is TAOK2 (Homo sapiens, UniProt Q9UL54). In outline:
as §1

Assay [4] deals with TTK (Homo sapiens, UniProt P33981). In outline:
as §1

Assay [5] concerns the target FGFR2 (Homo sapiens, UniProt P21802). In outline: as §1
Assay [6] has as its target T1, BRK (Homo sapiens, UniProt Q13882).
T1 construct: gene PTK6
In outline:
as §1

Assay [7] concerns the target PAK4 (Homo sapiens, UniProt O96013). The method, boiled down: as §1
The target of assay [8] is T2, CDK11 (Homo sapiens, UniProt Q9BWU1).
T2 construct: gene CDK19
In outline: as §1

For assay [9], the target named is FLT3(D835H) (Homo sapiens, UniProt P36888, D835H). In outline: as §1
In assay [10] the target is RET(M918T) (Homo sapiens, UniProt P07949, M918T). In outline:
as §1

Assay [11] concerns the target EPHA2 (Homo sapiens, UniProt P29317). The method, boiled down:
as §1

For assay [12], the target named is MELK (Homo sapiens, UniProt Q14680). In outline:
as §1

For assay [13], the target named is ABL2 (Homo sapiens, UniProt P42684). The method, boiled down: as §1
Assay [14] deals with T3, TRKC (Homo sapiens, UniProt Q16288).
T3 construct: gene NTRK3
The method, boiled down: as §1

Assay [15] deals with DDR1 (Homo sapiens, UniProt Q08345). The method, boiled down:
as §1

The target of assay [16] is PDPK1 (Homo sapiens, UniProt O15530). In outline:
as §1

Assay [17] addresses TNK1 (Homo sapiens, UniProt Q13470). The method, boiled down: as §1
Assay [18] has as its target KIT(V559D) (Homo sapiens, UniProt P10721, V559D). In outline:
as §1

For assay [19], the target named is T4, p38-delta (Homo sapiens, UniProt O15264).
T4 construct: gene MAPK13
In outline:
as §1

The target in assay [20] is HASPIN (Homo sapiens, UniProt Q8TF76). The method, boiled down:
as §1

Assay [21] has as its target MAP3K3 (Homo sapiens, UniProt Q99759). In outline: as §1
Assay [22] addresses NEK5 (Homo sapiens, UniProt Q6P3R8). In outline:
as §1

T2 sequence (Q9BWU1 whole entry): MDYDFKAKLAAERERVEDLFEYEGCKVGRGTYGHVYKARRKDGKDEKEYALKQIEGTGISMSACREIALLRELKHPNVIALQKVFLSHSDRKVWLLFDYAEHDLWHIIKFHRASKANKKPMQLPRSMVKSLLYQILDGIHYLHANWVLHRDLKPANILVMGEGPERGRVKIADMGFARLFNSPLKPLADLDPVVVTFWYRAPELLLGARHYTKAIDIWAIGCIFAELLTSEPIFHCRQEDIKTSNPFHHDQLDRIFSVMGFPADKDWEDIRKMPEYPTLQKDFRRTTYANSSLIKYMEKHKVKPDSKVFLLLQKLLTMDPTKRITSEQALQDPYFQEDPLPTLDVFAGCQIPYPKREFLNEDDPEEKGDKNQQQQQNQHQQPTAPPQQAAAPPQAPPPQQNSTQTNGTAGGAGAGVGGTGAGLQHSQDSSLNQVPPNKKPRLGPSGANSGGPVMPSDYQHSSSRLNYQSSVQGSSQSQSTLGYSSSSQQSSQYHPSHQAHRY
T4 sequence (O15264 whole entry): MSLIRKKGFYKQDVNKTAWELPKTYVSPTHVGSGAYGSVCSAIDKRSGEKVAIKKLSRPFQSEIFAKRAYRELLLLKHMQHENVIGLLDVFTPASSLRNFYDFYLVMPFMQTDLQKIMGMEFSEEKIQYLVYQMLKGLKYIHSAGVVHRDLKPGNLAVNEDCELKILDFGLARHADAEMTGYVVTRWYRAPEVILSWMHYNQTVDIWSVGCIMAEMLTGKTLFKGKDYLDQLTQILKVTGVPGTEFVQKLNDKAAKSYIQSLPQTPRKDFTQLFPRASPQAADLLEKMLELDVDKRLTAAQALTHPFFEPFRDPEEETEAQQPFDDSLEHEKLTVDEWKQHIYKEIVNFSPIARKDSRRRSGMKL
Sequence of MAP3K3 (Q99759 whole entry): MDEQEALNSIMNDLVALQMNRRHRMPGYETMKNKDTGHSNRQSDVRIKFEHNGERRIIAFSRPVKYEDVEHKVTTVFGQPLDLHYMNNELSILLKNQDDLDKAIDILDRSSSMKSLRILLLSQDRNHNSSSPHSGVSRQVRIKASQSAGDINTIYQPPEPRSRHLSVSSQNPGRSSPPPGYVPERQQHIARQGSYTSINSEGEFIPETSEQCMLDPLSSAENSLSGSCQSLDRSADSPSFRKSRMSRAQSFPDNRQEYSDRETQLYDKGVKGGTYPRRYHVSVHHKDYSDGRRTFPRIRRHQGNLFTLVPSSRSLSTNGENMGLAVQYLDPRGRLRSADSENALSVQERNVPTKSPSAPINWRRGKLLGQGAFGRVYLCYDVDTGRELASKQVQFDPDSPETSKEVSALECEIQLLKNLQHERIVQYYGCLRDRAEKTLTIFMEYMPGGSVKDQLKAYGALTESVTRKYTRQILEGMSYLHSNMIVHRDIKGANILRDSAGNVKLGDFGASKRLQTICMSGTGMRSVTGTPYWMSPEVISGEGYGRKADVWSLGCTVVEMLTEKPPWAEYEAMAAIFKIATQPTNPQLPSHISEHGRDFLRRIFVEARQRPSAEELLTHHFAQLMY
Sequence of KIT(V559D) (P10721 whole entry V559D): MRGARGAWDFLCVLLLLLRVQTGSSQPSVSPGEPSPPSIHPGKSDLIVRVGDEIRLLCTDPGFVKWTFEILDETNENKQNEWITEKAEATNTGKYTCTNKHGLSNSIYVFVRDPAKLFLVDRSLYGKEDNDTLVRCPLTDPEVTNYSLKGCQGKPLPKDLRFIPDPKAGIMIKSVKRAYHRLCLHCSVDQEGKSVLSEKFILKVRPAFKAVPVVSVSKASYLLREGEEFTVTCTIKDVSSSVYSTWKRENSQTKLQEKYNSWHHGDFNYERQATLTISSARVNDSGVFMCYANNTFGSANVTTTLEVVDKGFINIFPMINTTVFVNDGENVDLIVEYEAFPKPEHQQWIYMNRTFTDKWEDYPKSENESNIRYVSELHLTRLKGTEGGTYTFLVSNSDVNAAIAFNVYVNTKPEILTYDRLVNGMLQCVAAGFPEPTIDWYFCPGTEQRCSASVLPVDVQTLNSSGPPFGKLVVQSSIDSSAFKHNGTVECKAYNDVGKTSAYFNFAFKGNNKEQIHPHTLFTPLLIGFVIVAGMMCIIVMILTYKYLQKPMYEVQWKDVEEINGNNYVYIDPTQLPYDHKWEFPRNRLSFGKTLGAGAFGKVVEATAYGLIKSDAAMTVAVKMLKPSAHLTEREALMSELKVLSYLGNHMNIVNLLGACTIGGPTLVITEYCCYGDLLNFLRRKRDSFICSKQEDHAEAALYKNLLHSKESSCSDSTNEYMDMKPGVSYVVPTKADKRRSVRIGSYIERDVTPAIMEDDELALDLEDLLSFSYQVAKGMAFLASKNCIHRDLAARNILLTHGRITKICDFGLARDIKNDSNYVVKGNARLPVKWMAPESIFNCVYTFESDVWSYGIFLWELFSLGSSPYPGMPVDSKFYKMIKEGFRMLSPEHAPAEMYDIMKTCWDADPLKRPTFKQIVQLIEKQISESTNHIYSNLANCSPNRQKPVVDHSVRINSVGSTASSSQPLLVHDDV
Sequence of EPHA2 (P29317 whole entry): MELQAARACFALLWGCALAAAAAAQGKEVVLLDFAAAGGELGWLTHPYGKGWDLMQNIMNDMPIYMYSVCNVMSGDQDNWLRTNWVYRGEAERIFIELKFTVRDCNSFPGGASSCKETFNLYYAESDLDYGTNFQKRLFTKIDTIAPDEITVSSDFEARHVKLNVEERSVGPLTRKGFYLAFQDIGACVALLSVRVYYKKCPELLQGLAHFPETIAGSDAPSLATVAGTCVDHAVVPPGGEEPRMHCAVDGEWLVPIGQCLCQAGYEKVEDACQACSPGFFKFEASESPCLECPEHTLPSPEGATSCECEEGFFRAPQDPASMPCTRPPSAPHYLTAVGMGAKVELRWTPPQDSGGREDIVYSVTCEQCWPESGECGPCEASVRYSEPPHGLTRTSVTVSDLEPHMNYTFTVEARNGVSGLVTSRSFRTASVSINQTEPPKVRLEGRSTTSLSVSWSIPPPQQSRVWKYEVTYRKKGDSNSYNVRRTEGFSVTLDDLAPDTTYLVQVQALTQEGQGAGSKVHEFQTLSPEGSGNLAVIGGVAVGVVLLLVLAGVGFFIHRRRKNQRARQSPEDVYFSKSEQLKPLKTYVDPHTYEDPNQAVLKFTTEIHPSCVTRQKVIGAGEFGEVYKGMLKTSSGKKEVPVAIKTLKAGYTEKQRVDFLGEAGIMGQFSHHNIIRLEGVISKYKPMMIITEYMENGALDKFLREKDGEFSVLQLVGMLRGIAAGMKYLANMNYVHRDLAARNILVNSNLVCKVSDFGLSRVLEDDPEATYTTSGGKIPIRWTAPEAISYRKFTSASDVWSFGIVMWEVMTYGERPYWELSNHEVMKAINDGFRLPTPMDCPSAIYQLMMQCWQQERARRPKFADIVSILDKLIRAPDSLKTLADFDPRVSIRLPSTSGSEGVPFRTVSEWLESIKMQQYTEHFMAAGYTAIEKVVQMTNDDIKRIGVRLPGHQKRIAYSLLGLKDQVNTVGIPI
Sequence of ABL2 (P42684 whole entry): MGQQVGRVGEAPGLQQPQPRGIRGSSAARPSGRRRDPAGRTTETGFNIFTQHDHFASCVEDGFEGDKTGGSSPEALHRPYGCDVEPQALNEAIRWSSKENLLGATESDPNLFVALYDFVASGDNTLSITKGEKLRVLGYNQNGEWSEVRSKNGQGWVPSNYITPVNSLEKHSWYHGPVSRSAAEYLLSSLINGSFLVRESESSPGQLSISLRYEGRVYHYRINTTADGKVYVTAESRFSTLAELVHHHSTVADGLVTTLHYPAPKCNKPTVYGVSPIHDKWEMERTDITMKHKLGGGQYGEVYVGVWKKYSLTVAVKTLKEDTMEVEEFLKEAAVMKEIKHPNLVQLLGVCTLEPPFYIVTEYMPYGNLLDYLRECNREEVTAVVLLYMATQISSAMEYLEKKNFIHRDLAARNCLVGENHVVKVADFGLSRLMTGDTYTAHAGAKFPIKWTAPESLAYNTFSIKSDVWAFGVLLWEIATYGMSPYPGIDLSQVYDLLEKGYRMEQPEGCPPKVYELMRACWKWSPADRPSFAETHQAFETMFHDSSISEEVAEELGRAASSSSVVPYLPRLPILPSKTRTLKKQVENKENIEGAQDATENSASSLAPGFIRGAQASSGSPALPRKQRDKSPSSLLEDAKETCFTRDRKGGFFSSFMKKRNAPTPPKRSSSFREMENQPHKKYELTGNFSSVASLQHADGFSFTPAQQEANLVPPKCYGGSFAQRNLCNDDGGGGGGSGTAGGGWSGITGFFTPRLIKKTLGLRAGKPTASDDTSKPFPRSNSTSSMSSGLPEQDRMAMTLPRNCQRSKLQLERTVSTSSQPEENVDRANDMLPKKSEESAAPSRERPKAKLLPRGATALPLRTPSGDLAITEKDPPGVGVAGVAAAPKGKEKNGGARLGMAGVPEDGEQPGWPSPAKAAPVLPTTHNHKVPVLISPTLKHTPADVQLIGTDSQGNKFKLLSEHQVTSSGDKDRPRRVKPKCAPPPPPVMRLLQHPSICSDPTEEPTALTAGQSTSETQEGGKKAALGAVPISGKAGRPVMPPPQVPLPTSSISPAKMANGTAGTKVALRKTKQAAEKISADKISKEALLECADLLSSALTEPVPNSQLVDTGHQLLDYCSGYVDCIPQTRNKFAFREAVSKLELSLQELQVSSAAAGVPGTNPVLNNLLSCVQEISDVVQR
T1 sequence (Q13882 whole entry): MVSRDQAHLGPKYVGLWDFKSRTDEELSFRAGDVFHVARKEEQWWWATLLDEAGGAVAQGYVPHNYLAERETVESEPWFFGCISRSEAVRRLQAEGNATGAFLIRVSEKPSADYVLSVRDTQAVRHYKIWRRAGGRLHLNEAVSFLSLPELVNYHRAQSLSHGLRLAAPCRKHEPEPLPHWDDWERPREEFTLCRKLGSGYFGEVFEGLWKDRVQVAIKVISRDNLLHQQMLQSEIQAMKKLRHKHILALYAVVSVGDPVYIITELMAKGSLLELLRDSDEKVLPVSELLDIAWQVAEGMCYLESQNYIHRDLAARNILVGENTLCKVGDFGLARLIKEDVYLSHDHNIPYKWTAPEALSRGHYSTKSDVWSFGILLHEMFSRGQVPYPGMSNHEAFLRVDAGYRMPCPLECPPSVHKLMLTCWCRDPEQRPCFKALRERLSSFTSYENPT

Regarding `C=C(C)[C@H]1CC=C(C)C(=O)C1` [S-carvone], the remaining binding at 100 µM in assay [1] was 79%; in [2], 97%; in assay [3] it was 78%; in assay [4], 80%; in assay [5], 80%; in assay [6] it was 86%. Further, the remaining binding at 100 µM in assay [7] stood at 74%; in assay [8], 98%; in [9], 92%; in assay [10] it was 93%; in assay [11], 71%; in assay [12] it was 99%. For the same compound, the remaining binding at 100 µM was found to be 85% in [13]; 82% in assay [14]; 90% in [15]; 74% in assay [16]; 100% in [17]; 89% in assay [18]. In addition, the remaining binding at 100 µM in [19] was 57%; in assay [20] it was 74%; in [21], 54%; in [22] it was 93%.
